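Step 1: Grow cells in 96-well plates. Step 2: Expose to compound for 48 hours at 5 concentrations. Step 3: Interpolate endpoints linearly; if unreached, use highest concentration. GI50 is the concentration that inhibits growth by half. TGI is the concentration that stops growth completely.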
Experiments:
Test in all cases: growth of human tumour cells (NCI), 48 h
K-562 leukemia = system: K-562 leukemia
ACHN renal = system: ACHN renal
SW-620 colon = system: SW-620 colon
NCI/ADR-RES ovarian = system: NCI/ADR-RES ovarian
EKVX NSCLC = system: EKVX NSCLC
SF-295 CNS = system: SF-295 CNS
PC-3 prostate = system: PC-3 prostate
OVCAR-5 ovarian = system: OVCAR-5 ovarian
A498 renal = system: A498 renal
UACC-62 melanoma = system: UACC-62 melanoma
DU-145 prostate = system: DU-145 prostate
SK-MEL-28 melanoma = system: SK-MEL-28 melanoma
HL-60(TB) leukemia = system: HL-60(TB) leukemia
U251 CNS = system: U251 CNS
SK-MEL-2 melanoma = system: SK-MEL-2 melanoma
RPMI-8226 leukemia = system: RPMI-8226 leukemia
MCF7 breast = system: MCF7 breast
KM12 colon = system: KM12 colon
MDA-MB-435 = system: MDA-MB-435
MDA-MB-231 breast = system: MDA-MB-231 breast
NCI-H460 lung = system: NCI-H460 lung
TK-10 renal = system: TK-10 renal
T-47D breast = system: T-47D breast
MOLT-4 leukemia = system: MOLT-4 leukemia
NCI-H226 lung = system: NCI-H226 lung
NCI-H23 lung = system: NCI-H23 lung
SNB-75 CNS = system: SNB-75 CNS
HCT-116 colon = system: HCT-116 colon
SK-OV-3 ovarian = system: SK-OV-3 ovarian
RXF 393 renal = system: RXF 393 renal
BT-549 breast = system: BT-549 breast
UO-31 renal = system: UO-31 renal
SN12C renal = system: SN12C renal
HS 578T breast = system: HS 578T breast
HT29 colon = system: HT29 colon
COLO 205 colon = system: COLO 205 colon
HOP-92 NSCLC = system: HOP-92 NSCLC
IGROV1 ovarian = system: IGROV1 ovarian
A549 NSCLC = system: A549 NSCLC
SK-MEL-5 melanoma = system: SK-MEL-5 melanoma
SNB-19 CNS = system: SNB-19 CNS
HCC-2998 colon = system: HCC-2998 colon
MALME-3M melanoma = system: MALME-3M melanoma
OVCAR-8 ovarian = system: OVCAR-8 ovarian
SR leukemia = system: SR leukemia
OVCAR-4 ovarian = system: OVCAR-4 ovarian
NCI-H522 lung = system: NCI-H522 lung
786-0 renal = system: 786-0 renal
M14 melanoma = system: M14 melanoma
SF-268 CNS = system: SF-268 CNS
UACC-257 melanoma = system: UACC-257 melanoma
OVCAR-3 ovarian = system: OVCAR-3 ovarian
CCRF-CEM leukemia = system: CCRF-CEM leukemia
SF-539 CNS = system: SF-539 CNS
HOP-62 NSCLC = system: HOP-62 NSCLC
HCT-15 colon = system: HCT-15 colon
LOX IMVI melanoma = system: LOX IMVI melanoma

## CCN1CCC(Oc2c(C#N)ncc3[nH]c4ncccc4c23)CC1
K-562 leukemia
  GI50: 1.75 µM
  TGI: > 50 µM
ACHN renal
  GI50: 0.466 µM
  TGI: > 50 µM
SW-620 colon
  GI50: 12.2 µM
  TGI: > 50 µM
NCI/ADR-RES ovarian
  GI50: 2.78 µM
  TGI: > 50 µM
EKVX NSCLC
  GI50: 14.5 µM
  TGI: > 50 µM
SF-295 CNS
  GI50: 2.04 µM
  TGI: > 50 µM
PC-3 prostate
  GI50: 21 µM
  TGI: > 50 µM
OVCAR-5 ovarian
  GI50: 19.3 µM
  TGI: > 50 µM
A498 renal
  GI50: 0.296 µM
  TGI: 10.5 µM
UACC-62 melanoma
  GI50: 18.1 µM
  TGI: > 50 µM
DU-145 prostate
  GI50: 10.9 µM
  TGI: > 50 µM
SK-MEL-28 melanoma
  GI50: 16.2 µM
  TGI: > 50 µM
HL-60(TB) leukemia
  GI50: 2.9 µM
  TGI: 17.5 µM
U251 CNS
  GI50: 15.7 µM
  TGI: > 50 µM
SK-MEL-2 melanoma
  GI50: 2.48 µM
  TGI: 26.9 µM
RPMI-8226 leukemia
  GI50: 11 µM
  TGI: > 50 µM
MCF7 breast
  GI50: 0.403 µM
  TGI: > 50 µM
KM12 colon
  GI50: 2.83 µM
  TGI: > 50 µM
MDA-MB-435
  GI50: 1.88 µM
  TGI: > 50 µM
MDA-MB-231 breast
  GI50: 21.5 µM
  TGI: > 50 µM
NCI-H460 lung
  GI50: 7.33 µM
  TGI: > 50 µM
TK-10 renal
  GI50: 5.21 µM
  TGI: 41.7 µM
T-47D breast
  GI50: 26 µM
  TGI: > 50 µM
MOLT-4 leukemia
  GI50: 1.67 µM
  TGI: 21.2 µM
NCI-H226 lung
  GI50: 16.3 µM
  TGI: > 50 µM
NCI-H23 lung
  GI50: 3.25 µM
  TGI: > 50 µM
SNB-75 CNS
  GI50: 12.9 µM
  TGI: 29.8 µM
HCT-116 colon
  GI50: 7.2 µM
  TGI: > 50 µM
SK-OV-3 ovarian
  GI50: 3.99 µM
  TGI: > 50 µM
RXF 393 renal
  GI50: 0.559 µM
  TGI: 4.16 µM
BT-549 breast
  GI50: 1.96 µM
  TGI: 21 µM
UO-31 renal
  GI50: 3.94 µM
  TGI: > 50 µM
SN12C renal
  GI50: 14.2 µM
  TGI: > 50 µM
HS 578T breast
  GI50: 13.1 µM
  TGI: > 50 µM
HT29 colon
  GI50: 10.2 µM
  TGI: > 50 µM
COLO 205 colon
  GI50: 5.72 µM
  TGI: 19.5 µM
HOP-92 NSCLC
  GI50: > 50 µM
  TGI: > 50 µM
IGROV1 ovarian
  GI50: 15.6 µM
  TGI: > 50 µM
A549 NSCLC
  GI50: 14.1 µM
  TGI: > 50 µM
SK-MEL-5 melanoma
  GI50: 7.12 µM
  TGI: > 50 µM
SNB-19 CNS
  GI50: 14.7 µM
  TGI: > 50 µM
HCC-2998 colon
  GI50: 20.3 µM
  TGI: > 50 µM
MALME-3M melanoma
  GI50: 22.9 µM
  TGI: > 50 µM
OVCAR-8 ovarian
  GI50: 4.77 µM
  TGI: > 50 µM
SR leukemia
  GI50: 1.32 µM
  TGI: 22.3 µM
OVCAR-4 ovarian
  GI50: 7.88 µM
  TGI: > 50 µM
NCI-H522 lung
  GI50: 15 µM
  TGI: > 50 µM
786-0 renal
  GI50: 1.71 µM
  TGI: > 50 µM
M14 melanoma
  GI50: 0.357 µM
  TGI: > 50 µM
SF-268 CNS
  GI50: 16.2 µM
  TGI: > 50 µM
UACC-257 melanoma
  GI50: 19.9 µM
  TGI: > 50 µM
OVCAR-3 ovarian
  GI50: 2.55 µM
  TGI: > 50 µM
CCRF-CEM leukemia
  GI50: 1.84 µM
  TGI: > 50 µM
SF-539 CNS
  GI50: 1.34 µM
  TGI: 26.2 µM
HOP-62 NSCLC
  GI50: 13.2 µM
  TGI: > 50 µM
HCT-15 colon
  GI50: 9.35 µM
  TGI: > 50 µM
LOX IMVI melanoma
  GI50: 5.72 µM
  TGI: > 50 µM

Reference: PubChem BioAssay (NCI)
